This note sets out measurements from patent US9938276B2, “6,5-bicyclic octahydropyrrolopyridine orexin receptor antagonists” (Merck Sharp & Dohme Corp., priority 2014, dated 2018).

By IC50 is commonly meant the midpoint of a concentration-inhibition curve.

One assay has as its target human orexin-2 receptor (Homo sapiens (Human), UniProt O43614). As to the kind of experiment: hOX2R FLIPR Ca2+ flux assay. The class given is cell-based. The note with it: CHO cells expressing the receptor; agonist 70 pM Ala-6,12 human orexin-A. Here is the method:
In a typical experiment the OX1 and OX2 receptor antagonistic activity of the compounds of the present invention was determined in accordance with the following experimental method. For intracellular calcium measurements, Chinese hamster ovary (CHO) cells expressing the rat orexin-1 receptor or the human orexin-2 receptor, are grown in Iscove's modified DMEM containing 2 mM L-glutamine, […], 1% hypoxanthine-thymidine supplement, 100 U/ml penicillin, 100 μg/ml streptomycin and 10% heat-inactivated fetal calf serum (FCS). The cells are seeded at 20,000 cells/well into Becton-Dickinson black 384-well clear bottom sterile plates coated with poly-D-lysine. All reagents were from GIBCO-Invitrogen Corp. The seeded plates are incubated overnight at 37° C. and 5% CO2. Ala-6,12 human orexin-A as the agonist is prepared as a 1 mM stock solution in 1% bovine serum albumin (BSA) and diluted in assay buffer (HBSS containing 20 mM HEPES, 0.1% BSA and 2.5 mM probenecid, pH7.4) for use in the assay at a final concentration of 70 pM. Test compounds are prepared as 10 mM stock solution in DMSO, then diluted in 384-well plates, first in DMSO, then assay buffer. On the day of the assay, cells are washed 3 times with 100 μl assay buffer and then incubated for 60 min (37° C., 5% CO2) in 60 μl assay buffer containing 1 μM Fluo-4AM ester, 0.02% pluronic acid, and 1% BSA. The dye loading solution is then aspirated and cells are washed 3 times with 100 μl assay buffer. 30 μl of that same buffer is left in each well. Within the Fluorescent Imaging Plate Reader (FLIPR, Molecular Devices), test compounds are added to the plate in a volume of 25 μl, incubated for 5 min and finally 25 μl of agonist is added. Fluorescence is measured for each well at 1 second intervals for 5 minutes and the height of each fluorescence peak is compared to the height of the fluorescence peak induced by 70 pM Ala-6,12 orexin-A with buffer in place of antagonist. […] Alternatively, compound potency can be assessed by a radioligand binding assay (described in Bergman et. al. Bioorg. Med. Chem. Lett. 2008, 18, 1425-1430) in which the inhibition constant (Ki) is determined in membranes prepared from CHO cells expressing either the OX1 or OX2 receptor. The intrinsic orexin receptor antagonist activity of a compound which may be used in the present invention may be determined by these assays.

The next assay concerns the target hOX1R (Homo sapiens, UniProt O43613). As to the kind of experiment: hOX1R FLIPR Ca2+ flux assay. The class given is cell-based. The note with it: CHO cells expressing the receptor; agonist 70 pM Ala-6,12 human orexin-A. For orientation: Calcium assays in cells follow changes in intracellular calcium, usually with a dye or a luminescent sensor.

Chain of human orexin-2 receptor (O43614 whole entry): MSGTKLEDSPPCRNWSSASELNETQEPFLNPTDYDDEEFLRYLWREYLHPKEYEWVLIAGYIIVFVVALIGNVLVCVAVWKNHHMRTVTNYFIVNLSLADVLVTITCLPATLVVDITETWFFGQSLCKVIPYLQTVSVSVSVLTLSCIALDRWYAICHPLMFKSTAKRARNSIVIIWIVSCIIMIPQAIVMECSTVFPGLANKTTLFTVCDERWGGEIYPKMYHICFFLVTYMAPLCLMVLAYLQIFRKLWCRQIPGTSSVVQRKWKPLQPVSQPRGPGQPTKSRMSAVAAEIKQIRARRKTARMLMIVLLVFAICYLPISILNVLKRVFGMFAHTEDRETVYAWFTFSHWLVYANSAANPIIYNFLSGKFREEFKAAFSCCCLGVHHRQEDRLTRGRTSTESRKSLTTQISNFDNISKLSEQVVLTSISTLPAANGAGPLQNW

As for `O=C(c1ccccc1-n1nccn1)N1CC[C@H]2CCN(c3nccn4ccnc34)[C@H]2C1` [Example B14, (2-(2H-1,2,3-triazol-2-yl)phenyl)((3aR, 7aR)-1-(imidazo[1,2-a]pyrazin-8-yl)hexahydro-1H-pyrrolo[2,3-c]pyridin-6(2H)-yl)methanone], the IC50 on human orexin-2 receptor was 1.07 µM; at hOX1R, ≥ 10 µM.

With `O=C(c1ccccc1-n1nccn1)N1CC[C@H]2CCN(c3ncnc4sccc34)[C@H]2C1` [Example B15, (2-(2H-1,2,3-triazol-2-yl)phenyl)((3aR, 7aR)-1-(thieno[2,3-d]pyrimidin-4-yl)hexahydro-1H-pyrrolo[2,3-c]pyridin-6(2H)-yl)methanone], the half-maximal inhibitory concentration (IC50) on human orexin-2 receptor and on hOX1R was ≥ 10 µM in each case.

On to `O=C(c1ccccc1-n1nccn1)N1CC[C@H]2CCN(c3nccc4cccnc34)[C@H]2C1` [Example B16, ((3aR, 7aR)-1-(1,7-naphthyridin-8-yl)hexahydro-1H-pyrrolo[2,3-c]pyridin-6(2H)-yl)(2-(2H-1,2,3-triazol-2-yl)phenyl)methanone], for which the figures for the IC50 on human orexin-2 receptor and at hOX1R were 0.75 µM and ≥ 10 µM, respectively.

As to `O=C(c1ccccc1-n1nccn1)N1CC[C@H]2CCN(c3ccc4ccccc4n3)[C@H]2C1` [Example B18, 2-[(3aR, 7aR)-6-{[2-(2H-1,2,3-triazol-2-yl)phenyl]carbonyl}octahydro-1H-pyrrolo[2,3-c]pyridin-1-yl]quinoline], the values for the IC50 at human orexin-2 receptor and on hOX1R were 1.53 µM and 1.04 µM, respectively.

Regarding `O=C1OCc2c1ccnc2N1CC[C@@H]2CCN(C(=O)c3ccccc3-n3nccn3)C[C@@H]21` [Example B19, 4-[(3aR, 7aR)-6-{[2-(2H-1,2,3-triazol-2-yl)phenyl]carbonyl}octahydro-1H-pyrrolo[2,3-c]pyridin-1-yl]furo[3,4-c]pyridin-1(3H)-one], the IC50 on human orexin-2 receptor amounted to 1.01 µM; at hOX1R, 10 µM.

Consider `Cc1cncc(N2CC[C@@H]3CCN(C(=O)c4ccccc4-n4nccn4)C[C@@H]32)n1` [Example B20, (3aR, 7aR)-1-(6-methylpyrazin-2-yl)-6-{[2-(2H-1,2,3-triazol-2-yl)phenyl]carbonyl}octahydro-1H-pyrrolo[2,3-c]pyridine], for which the results for the IC50 at human orexin-2 receptor and at hOX1R were 2.08 µM and ≥ 10 µM, respectively.

In the case of `Cc1ncc(N2CC[C@@H]3CCN(C(=O)c4ccccc4-n4nccn4)C[C@@H]32)nc1C` [Example B21, (3aR, 7aR)-1-(5,6-dimethylpyrazin-2-yl)-6-{[2-(2H-1,2,3-triazol-2-yl)phenyl]carbonyl}octahydro-1H-pyrrolo[2,3-c]pyridine], the IC50 at human orexin-2 receptor amounted to 0.948 µM; on hOX1R, 10 µM.

With `Cc1cnc(C)c(N2CC[C@@H]3CCN(C(=O)c4ccccc4-n4nccn4)C[C@@H]32)n1` [Example B22, (3aR, 7aR)-1-(3,6-dimethylpyrazin-2-yl)-6-{[2-(2H-1,2,3-triazol-2-yl)phenyl]carbonyl}octahydro-1H-pyrrolo[2,3-c]pyridine], the IC50 on human orexin-2 receptor is 5.91 µM; at hOX1R it was ≥ 10 µM.

Consider `O=C(c1ccccc1-n1nccn1)N1CC[C@H]2CCN(c3cncc4ccccc34)[C@H]2C1` [Example B23, 4-[(3aR, 7aR)-6-{[2-(2H-1,2,3-triazol-2-yl)phenyl]carbonyl}octahydro-1H-pyrrolo[2,3-c]pyridin-1-yl]isoquinoline], for which the IC50 at human orexin-2 receptor was 7.07 µM; on hOX1R, 10 µM.

As to `CC(C)(O)c1csc(N2CC[C@H]3CCN(C(=O)c4ccccc4-n4nccn4)C[C@@H]32)n1` [Example C1], the figures for the IC50 at human orexin-2 receptor and on hOX1R were 0.202 µM and 10 µM, respectively.

`CC(C)(O)c1coc(N2CC[C@@H]3CCN(C(=O)c4ccccc4-n4nccn4)C[C@@H]32)n1` [Example C2]: the IC50 on human orexin-2 receptor is 0.342 µM; on hOX1R it was 10 µM.

Consider `CC(O)(c1cncc(N2CC[C@@H]3CCN(C(=O)c4ccccc4-n4nccn4)C[C@@H]32)n1)C(F)(F)F` (stereo partly drawn) [Example C3, 1,1,1-trifluoro-2-{6-[(3aR, 7aR)-6-{[2-(2H-1,2,3-triazol-2-yl)phenyl]carbonyl}octahydro-1H-pyrrolo[2,3-c]pyridin-1-yl]pyrazin-2-yl}propan-2-ol], for which the 50% inhibitory concentration (IC50) is 3.34 µM on human orexin-2 receptor and ≥ 10 µM on hOX1R.

Regarding `CC(C)(O)c1cccc(N2CC[C@@H]3CCN(C(=O)c4ccccc4-n4nccn4)C[C@@H]32)c1` [Example C4, 2-{3-[(3aR, 7aR)-6-{[2-(2H-1,2,3-triazol-2-yl)phenyl]carbonyl}octahydro-1H-pyrrolo[2,3-c]pyridin-1-yl]phenyl}propan-2-ol], the IC50 on human orexin-2 receptor amounted to 0.0486 µM; on hOX1R, 10 µM.

In the case of `CC(C)(O)c1ccnc(N2CC[C@@H]3CCN(C(=O)c4ccccc4-n4nccn4)C[C@@H]32)c1` [Example C5, 2-{2-[(3aR, 7aR)-6-{[2-(2H-1,2,3-triazol-2-yl)phenyl]carbonyl}octahydro-1H-pyrrolo[2,3-c]pyridin-1-yl]pyridin-4-yl}propan-2-ol], the IC50 at human orexin-2 receptor was 0.125 µM; at hOX1R it was 10 µM.

As for `CC(C)(O)c1cnc(N2CC[C@@H]3CCN(C(=O)c4ccccc4-n4nccn4)C[C@@H]32)nc1` [Example C6, 2-{2-[(3aR, 7aR)-6-{[2-(2H-1,2,3-triazol-2-yl)phenyl]carbonyl}octahydro-1H-pyrrolo[2,3-c]pyridin-1-yl]pyrimidin-5-yl}propan-2-ol], the half-inhibitory concentration (IC50) at human orexin-2 receptor turned out to be 1.83 µM; at hOX1R, 10 µM.

Consider `N#Cc1ccnc(N2CC[C@@H]3CCN(C(=O)c4cccnc4OCC(F)F)C[C@@H]32)c1` [Example D1, 2-((3aR,7aR)-6-(2-(2,2-difluoroethoxy)nicotinoyl)octahydro-1H-pyrrolo[2,3-c]pyridin-1-yl)isonicotinonitrile], for which the IC50 was 0.147 µM at human orexin-2 receptor and 10 µM on hOX1R.

As to `CCOc1ccccc1C(=O)N1CC[C@H]2CCN(c3cc(C#N)ccn3)[C@H]2C1` [Example E1, 2-((3aR,7aR)-6-(2-ethoxybenzol)octahydro-1H-pyrrolo[2,3-c]pyridin-1-yl)isonicotinonitrile], the IC50 on human orexin-2 receptor came out at 0.11 µM; on hOX1R, 10 µM.

As for `CCCc1ccccc1C(=O)N1CC[C@H]2CCN(c3cc(C#N)ccn3)[C@H]2C1` [Example E2, 2-((3aR, 7aR)-6-(2-propylbenzoyl)octahydro-1H-pyrrolo[2,3-c]pyridin-1-yl)isonicotinonitrile], the figures for the 50% inhibitory concentration (IC50) at human orexin-2 receptor and on hOX1R were 0.0594 µM and 10 µM, respectively.

Take `N#Cc1ccnc(N2CC[C@@H]3CCN(C(=O)c4ccccc4CC(F)(F)F)C[C@@H]32)c1` [Example E3, 2-((3aR, 7aR)-6-(2-(2,2,2-trifluoroethyl)benzoyl)octahydro-1H-pyrrolo[2,3-c]pyridin-1-yl)isonicotinonitrile]: the IC50 at human orexin-2 receptor came out at 0.0481 µM; on hOX1R it was 10 µM.

As for `N#Cc1ccnc(N2CC[C@@H]3CCN(C(=O)c4ccc(F)cc4-n4nccn4)C[C@@H]32)c1` [Example E4, 2-((3aR, 7aR)-6-(4-fluoro-2(2H-1,2,3-triazol-2-yl)benzoyl)octahydro-1H-pyrrolo[2,3-c]pyridin-1-yl)isonicotinonitrile], the IC50 was 0.0627 µM at human orexin-2 receptor and ≥ 10 µM at hOX1R.

As for `N#Cc1ccnc(N2CC[C@@H]3CCN(C(=O)c4cccnc4-c4ccccc4)C[C@@H]32)c1` [Example E5, 2-((3aR, 7aR)-6-(2-phenylnicotinoyl)octahydro-1H-pyrrolo[2,3-c]pyridin-1-yl)isonicotinonitrile], the IC50 at human orexin-2 receptor was 0.0939 µM; on hOX1R, 10 µM.

For `CCOc1ncccc1C(=O)N1CC[C@H]2CCN(c3cc(C#N)ccn3)[C@H]2C1` [Example E6, 2-{(3aR, 7aR)-6-[(2-ethoxypyridin-3-yl)carbonyl]octahydro-1H-pyrrolo[2,3-c]pyridin-1-yl}pyridine-4-carbonitrile], the values for the IC50 at human orexin-2 receptor and on hOX1R were 1.15 µM and 10 µM, respectively.

Turning to `N#Cc1ccnc(N2CC[C@@H]3CCN(C(=O)c4cccnc4OCC(F)(F)F)C[C@@H]32)c1` [Example E7, 2-[(3aR, 7aR)-6-{[2-(2,2,2-trifluoroethoxy)pyridin-3-yl]carbonyl}octahydro-1H-pyrrolo[2,3-c]pyridin-1-yl]pyridine-4-carbonitrile], the results for the IC50 on human orexin-2 receptor and at hOX1R were 0.122 µM and 10 µM, respectively.

Turning to `N#Cc1ccnc(N2CC[C@@H]3CCN(C(=O)c4ccccc4CC(F)F)C[C@@H]32)c1` [Example E8, 2-[(3aR, 7aR)-6-{[2-(2,2-difluoroethyl)phenyl]carbonyl}octahydro-1H-pyrrolo[2,3-c]pyridin-1-yl]pyridine-4-carbonitrile], the IC50 at human orexin-2 receptor came out at 0.512 µM; on hOX1R, 10 µM.
